The values that follow are results of earlier work, collected in US20130344180A1, “WEIGHT LOSS AND SATIATION COMPOSITION” (YL HOLDINGS, INC., priority 2012, published 2013).

Data set [1] deals with E1, E2, and E3 isozymes of retinaldehyde dehydrogenase (Raldh).
For data set [2] the following is noted: mice and rats.
The conditions of data set [3]: mice and rats. The source holds these as a separate data set.
Another data set has as its system prostate gland tumors. Conditions: various strains of rats.
Another data set has as its system cellular metabolism. Conditions: by increasing cellular metabolism.
The test system of data set [4] is adipocyte differentiation.
The conditions of data set [5]: in vivo.
For the next data set, the target named is PPARγ (Homo sapiens, UniProt P37231).
Sequence of PPARγ (P37231 whole entry, species assumed): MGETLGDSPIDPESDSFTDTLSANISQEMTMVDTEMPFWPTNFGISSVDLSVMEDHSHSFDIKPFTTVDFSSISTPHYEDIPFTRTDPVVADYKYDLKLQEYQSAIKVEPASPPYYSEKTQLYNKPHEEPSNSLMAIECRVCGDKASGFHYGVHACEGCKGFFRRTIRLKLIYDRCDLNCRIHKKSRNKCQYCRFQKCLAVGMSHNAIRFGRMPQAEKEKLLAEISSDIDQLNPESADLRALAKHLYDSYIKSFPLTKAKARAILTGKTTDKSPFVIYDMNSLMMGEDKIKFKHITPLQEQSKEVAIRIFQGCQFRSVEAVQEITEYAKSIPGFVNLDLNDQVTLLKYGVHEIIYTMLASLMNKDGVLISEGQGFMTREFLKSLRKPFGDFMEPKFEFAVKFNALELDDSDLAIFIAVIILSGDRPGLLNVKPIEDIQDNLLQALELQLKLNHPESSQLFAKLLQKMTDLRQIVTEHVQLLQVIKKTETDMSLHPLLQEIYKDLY
For data set [6], the system named is fat cells in white adipose tissue. Conditions: by increasing the expression of thermogenin.

For the compound `CC(C)=CCCC(C)=CC=O` [Citral, 3,7-dimethyl-2,6-octadienal], the “inhibition of E1, E2, and E3 isozymes of retinaldehyde dehydrogenase (Raldh)” value in data set [1] was “competitively inhibits”. The toxicity entry in data set [2] is reported as “non-toxic”. In addition, the carcinogenic potential result in data set [3] is reported as “does not possess carcinogenic potential”. Besides, the “effect against prostate gland tumors” value in the data set with prostate gland tumors is “effective”. In the data set on cellular metabolism, the thermogenic response result is “provide thermogenic response”.
With `CCCC\C=C/C=C/C=C\CCCCCCCC(=O)O` [punicic acid], the adipocyte differentiation entry in [4] is “suppression”. In addition, the “high-fat-diet induced obesity and insulin resistance” value in data set [5] was “suppression”. In addition, the “ligand of PPARγ” value on PPARγ is reported as “acts as a ligand”.
With Fucoxanthin, the “fat burning within fat cells” value in data set [6] is reported as “promote fat burning”.
